Measured values reported in US20220127576A1, “COMPOSITIONS AND METHODS FOR STEM CELL THERAPY” (Arizona Board of Regents on Behalf of the University of …, priority 2019, published 2022).
“Also recorded” adds a separate entry of the source.

Experiments:
[1] = Heart rate, blood pressure and tolerance during ISO infusion; format: in vivo, human; conditions: ISO 50 ng/kg/min, before and after 5-days G-CSF (5 mcg/kg/day); n=3
Excerpt: Research Design: Scientific Rigor is maintained through the use of a randomized, complete cross-over, double blind placebo controlled experimental design (above table). This design allows participants to act as their own controls, thus minimizing variability and the impact of potential between-subject confounders. Healthy volunteers report to the lab on six separate occasions at the same time of day. During Visit 1, they undergo an extensive screening procedure to ensure that they meet the study inclusion/exclusion criteria. A blood sample is drawn to determine CMV serostatus (positive or negative) and MR haplotype (A or B), which is included as co-variates in the analysis. Participants then complete six trials on separate days (Visit 2-7) with 7-days interspersed between each trial. During each of these visits, subjects are infused with 50 ng/kg/min of ISO (5 visits) or saline (1 visit) for 30-minutes. Blood samples are drawn before and during the last 10-minutes of the 30-minute infusion protocol. Participants are given orally administered drugs or placebo as a single dose within a few hours prior to ISO infusion. Participants are assigned to trial order using a block randomization scheme with random block sizes of between 2 and 4 subjects to obtain a balanced sample of 8 subjects per trial sequence order (see Statistical Power and Analysis section below). The randomization list is used to create sealed envelopes that are opened to determine assignment to drug order group after visit 1, with the trial order blinded to both the investigators and the participants.

[2] = tested on: leukemia and multiple myeloma target cells; assay: In vitro anti-tumor (cytotoxic) activity of mobilized PBHC grafts; format: cell-based, human; conditions: compared to rest / G-CSF only
Excerpt: Moreover, cytotoxic activity against leukemia and multiple myeloma target cells in vitro was 2-fold greater in the G-CSF+ISO PBHC grafts compared to G-CSF alone. […] Accordingly, in some embodiments, provided herein are compositions and methods for mobilizing stem cells with enhanced properties for use in allogenic or autologous transfers.
(§1) This was largely explained by a shift in the composition of NK-cells and TCR-γδ cells. […] The effects of systemic β-AR activation on the mobilization and ex vivo expansion of VSTs and TCR-γδ cells were β2-AR mediated as the effects were diminished by administering nadolol but not bisoprolol prior to systemic β-AR activation (FIG. 6).

[3] = tested on: lymphocytes, lymphocyte subtypes and CD34+ HSCs in whole blood; assay: Lymphocyte subtypes and CD34+ HSCs in whole blood at rest and during ISO infusion before and after G-CSF treatment; format: in vivo, human
Excerpt: Values are the mean (n=7; 3 females).
This graft phenotype is predictive of improved clinical outcomes post alloHSCT, including lower incidence/severity of GvHD and viral infections, better engraftment and a lower incidence of relapse (Table 1).

[4] = tested on: lymphocytes, lymphocyte subtypes and CD34+ HSCs in whole blood; assay: as above; format: in vivo, human; conditions: for Absolute number of B cells in whole blood / Absolute number of CD3+ T cells in whole blood / Absolute number of CD4+ T cells in whole blood / Absolute number of CD8+ T cells in whole blood / Absolute number of CD34+ HSCs in whole blood / Absolute number of CM CD4+ T cells in whole blood / Absolute number of CM CD8+ T cells in whole blood / Absolute number of EM CD4+ T cells in whole blood / Absolute number of EM CD8+ T cells in whole blood / Absolute number of EMRA CD4+ T cells in whole blood / Absolute number of EMRA CD8+ T cells in whole blood / Absolute number of NK cells in whole blood / Absolute number of Naïve CD4+ T cells in whole blood / Absolute number of Naïve CD8+ T cells in whole blood / Absolute number of lymphocytes (Lymph.) in whole blood / Absolute number of αβ T cells in whole blood / Absolute number of γδ T cells in whole blood: mean, n = 3
[5] = tested on: lymphocytes, lymphocyte subtypes and CD34+ HSCs in whole blood; conditions: ISO dose of 50 ng/kg/min, healthy subjects, literature; cited from earlier work
[6] = ISO dose of 50 ng/kg/min, literature; cited from earlier work
[7] = tested on: VSTs specific to CMV, EBV and adenovirus antigens; assay: Mobilization of viral-specific T-cells (IFN-γ ELISpot and IFN-γ capture assays) with systemic β-AR activation; format: in vivo, human; conditions: healthy humans (n=11)
Excerpt: Difference from the resting condition indicated by *, p<0.05. Difference from the placebo and bisoprolol trials indicated by #, p<0.05.

[8] = oral, literature; cited from earlier work
[9] = tested on: lymphocyte composition in blood; assay: β-AR antagonists / PDE-4 inhibitor given prior to systemic β-AR activation (dynamic exercise): lymphocyte composition and heart rate; format: in vivo, human; conditions: antagonist administered prior to systemic β-AR activation (dynamic exercise model)
Experimental: Baseline samples were collected before drug/placebo administration and again 3 h later (pre-exercise).
To determine the β-AR subtype involved, a selective β1-AR antagonist (bisoprolol) and non-selective β1+β2-AR antagonist (nadolol) were administered prior to systemic β-AR activation (using dynamic exercise as an experimental model).

[10] = tested on: VSTs and TCR-γδ cells; assay: Mobilization and ex vivo expansion of VSTs and TCR-γδ cells after systemic β-AR activation; format: cell-based, human; conditions: antagonist administered prior to systemic β-AR activation
Excerpt: as §1

[11] = ISO infusion 50 ng/kg/min, before and after 5-days G-CSF (5 mcg/kg/day), n=7
[12] = after G-CSF mobilization, healthy volunteers
[13] = Post G-CSF, during ISO infusion

CC(C)NCC(O)c1ccc(O)c(O)c1 (centres unmarked) [ISO, isoproterenol]
systolic hypertension [1]: ~30 mmHg
tachycardia [1]: ~50 bpm
tolerance to ISO infusion [1]: excellent tolerance
in vitro anti-tumor activity of G-CSF mobilized PBHC grafts [2]: increases
composition of CD4+ TCR-αβ cells and B-cells among total blood lymphocytes [3, 11]: lowers
numbers of CD34 HSCs in peripheral blood / graft [3, 12]: increases; also recorded: without compromising
composition of NK-cells and TCR-γδ cells among total blood lymphocytes [4, 11]: markedly increases
Absolute number of B cells in whole blood [4, 13]: 392 cells/ul
Absolute number of CD3+ T cells in whole blood [4, 13]: 2933 cells/ul
Absolute number of CD4+ T cells in whole blood [4, 13]: 1835 cells/ul
Absolute number of CD8+ T cells in whole blood [4, 13]: 795 cells/ul
Absolute number of CD34+ HSCs in whole blood [4, 13]: 92 cells/ul
Absolute number of CM CD4+ T cells in whole blood [4, 13]: 298 cells/ul
Absolute number of CM CD8+ T cells in whole blood [4, 13]: 41 cells/ul
Absolute number of EM CD4+ T cells in whole blood [4, 13]: 429 cells/ul
Absolute number of EM CD8+ T cells in whole blood [4, 13]: 342 cells/ul
Absolute number of EMRA CD4+ T cells in whole blood [4, 13]: 220 cells/ul
Absolute number of EMRA CD8+ T cells in whole blood [4, 13]: 184 cells/ul
Absolute number of NK cells in whole blood [4, 13]: 2068 cells/ul
Absolute number of Naïve CD4+ T cells in whole blood [4, 13]: 886 cells/ul
Absolute number of Naïve CD8+ T cells in whole blood [4, 13]: 227 cells/ul
Absolute number of lymphocytes (Lymph.) in whole blood [4, 13]: 6730 cells/ul
Absolute number of αβ T cells in whole blood [4, 13]: 2253 cells/ul
Absolute number of γδ T cells in whole blood [4, 13]: 214 cells/ul
Absolute number of B cells in whole blood ([4]; Pre G-CSF, during ISO infusion): 100 cells/ul
Absolute number of CD3+ T cells in whole blood ([4]; Pre G-CSF, during ISO infusion): 924 cells/ul
Absolute number of CD4+ T cells in whole blood ([4]; Pre G-CSF, during ISO infusion): 489 cells/ul
Absolute number of CD8+ T cells in whole blood ([4]; Pre G-CSF, during ISO infusion): 329 cells/ul
Absolute number of CD34+ HSCs in whole blood ([4]; Pre G-CSF, during ISO infusion): 6 cells/ul
Absolute number of CM CD4+ T cells in whole blood ([4]; Pre G-CSF, during ISO infusion): 137 cells/ul
Absolute number of CM CD8+ T cells in whole blood ([4]; Pre G-CSF, during ISO infusion): 34 cells/ul
Absolute number of EM CD4+ T cells in whole blood ([4]; Pre G-CSF, during ISO infusion): 80 cells/ul
Absolute number of EM CD8+ T cells in whole blood ([4]; Pre G-CSF, during ISO infusion): 114 cells/ul
Absolute number of EMRA CD4+ T cells in whole blood ([4]; Pre G-CSF, during ISO infusion): 13 cells/ul
Absolute number of EMRA CD8+ T cells in whole blood ([4]; Pre G-CSF, during ISO infusion): 81 cells/ul
Absolute number of NK cells in whole blood ([4]; Pre G-CSF, during ISO infusion): 778 cells/ul
Absolute number of Naïve CD4+ T cells in whole blood ([4]; Pre G-CSF, during ISO infusion): 257 cells/ul
Absolute number of Naïve CD8+ T cells in whole blood ([4]; Pre G-CSF, during ISO infusion): 99 cells/ul
Absolute number of lymphocytes (Lymph.) in whole blood ([4]; Pre G-CSF, during ISO infusion): 2043 cells/ul
Absolute number of αβ T cells in whole blood ([4]; Pre G-CSF, during ISO infusion): 830 cells/ul
Absolute number of γδ T cells in whole blood ([4]; Pre G-CSF, during ISO infusion): 91 cells/ul
ratio of 'favorable' to 'unfavorable' lymphocyte subtypes in peripheral blood [4, 12]: alters
mobilization of lymphocytes to the circulation [5]: robust mobilization
safety for infusing healthy subjects [6]: safe

CC(C)NCC(O)COc1ccc(COCCOC(C)C)cc1 (centres unmarked) [bisoprolol]
effects of systemic β-AR activation on the mobilization of VSTs [7]: not
half-life [8]: 10 to 12 h
effects of systemic β-AR activation on graft composition shifts [9]: remained favorably altered

COc1ccccc1OCCNCC(O)COc1cccc2[nH]c3ccccc3c12 (centres unmarked) [carvedilol]
half-life [8]: 7 to 10 h

CC(C)(C)NCC(O)COc1cccc2c1CC(O)C(O)C2 (centres unmarked) [nadolol]
effects of systemic β-AR activation on the mobilization and ex vivo expansion of VSTs and TCR-γδ cells [10]: diminished
effects of systemic β-AR activation on the mobilization of VSTs [7]: inhibits; also recorded: blocked
half-life [8]: 14 to 24 h
effects of systemic β-AR activation on graft composition shifts [9]: not
effects of systemic β-AR activation on graft composition shifts ([9]; listed as Nadolol): abrogated

O=C(Nc1c(Cl)cncc1Cl)c1ccc(OC(F)F)c(OCC2CC2)c1 [roflumilast]
half-life [8]: 15 to 18 h

B1: G-CSF: stem cell mobilization agent; filgrastim (G-CSF), 5 mcg/kg/day for 5 days (protein, chains of the INN, looked up)
chain: MTPLGPASSLPQSFLLKCLEQVRKIQGDGAALQEKLCATYKLCHPEELVLLGHSLGIPWAPLSSCPSQALQLAGCLSQLHSGLFLYQGLLQALEGISPELGPTLDTLQLDVADFATTIWQQMEELGMAPALQPTQGAMPAFASAFQRRAGGVLVASHLQSFLEVSYRVLRHLAQP
Absolute number of B cells in whole blood ([4]; Post G-CSF, Rest): 456 cells/ul
Absolute number of CD3+ T cells in whole blood ([4]; Post G-CSF, Rest): 2755 cells/ul
Absolute number of CD4+ T cells in whole blood ([4]; Post G-CSF, Rest): 1749 cells/ul
Absolute number of CD8+ T cells in whole blood ([4]; Post G-CSF, Rest): 786 cells/ul
Absolute number of CD34+ HSCs in whole blood ([4]; Post G-CSF, Rest): 110 cells/ul
Absolute number of CM CD4+ T cells in whole blood ([4]; Post G-CSF, Rest): 268 cells/ul
Absolute number of CM CD8+ T cells in whole blood ([4]; Post G-CSF, Rest): 47 cells/ul
Absolute number of EM CD4+ T cells in whole blood ([4]; Post G-CSF, Rest): 405 cells/ul
Absolute number of EM CD8+ T cells in whole blood ([4]; Post G-CSF, Rest): 284 cells/ul
Absolute number of EMRA CD4+ T cells in whole blood ([4]; Post G-CSF, Rest): 216 cells/ul
Absolute number of EMRA CD8+ T cells in whole blood ([4]; Post G-CSF, Rest): 154 cells/ul
Absolute number of NK cells in whole blood ([4]; Post G-CSF, Rest): 1158 cells/ul
Absolute number of Naïve CD4+ T cells in whole blood ([4]; Post G-CSF, Rest): 860 cells/ul
Absolute number of Naïve CD8+ T cells in whole blood ([4]; Post G-CSF, Rest): 302 cells/ul
Absolute number of lymphocytes (Lymph.) in whole blood ([4]; Post G-CSF, Rest): 5866 cells/ul
Absolute number of αβ T cells in whole blood ([4]; Post G-CSF, Rest): 2661 cells/ul
Absolute number of γδ T cells in whole blood ([4]; Post G-CSF, Rest): 93 cells/ul
